Measured values as given in patent US10610564B2, “IRGM and precision autophagy controls for antimicrobial and inflammatory disease states and methods of detection of autophagy” (STC.UNM, priority 2015, dated 2020).

Columns and labels:
autophagy = assay: Autophagy assays identifying autophagy modulators; type: cell-based
TRIM21 = TRIM21 mRNA levels by quantitative RT-PCR in THP-1 cells; type: cell-based, human; conditions: 1,000 U/ml IFN-γ for indicated times
Experimental: (A) THP-1 cells were treated with 1,000 U/ml of IFN-γ for indicated times, and TRIM21 mRNA levels were determined by quantitative RT-PCR. (B) Co-immunoprecipitation analysis of GFP-TRIM20 with Flag-TRIM21 in HEK293 cells extracts. (C) Knockdown efficacy of TRIM21 level was examined by immunoblotting. (D) Levels of dimerized IRF3 were assessed by native PAGE from THP-1 cells subjected to TRIM21 or control knockdown, untreated with IFN-γ, and transfected with herring testis DNA (HT-DNA). (E and F) THP-1 cells subjected to TRIM21 or control knockdown were infected with a single-round infection HIV1 virus in the presence of 200 U/mL IFN-γ for 20 h, and (E) the levels of dimerized IRF3 or (F) mRNA levels of IFN-β were determined. […]
(§1) Detection of IRF3 dimerization was performed by native polyacrylamide gel electrophoresis (PAGE) as previously described (Takahasi et al., 2003). Quantitative RT-PCR was performed as previously described (Kimura et al., 2013) using the following primer sets: ULK1, ([…], […]); BECN1, ([…], […]); ACTIN, ([…], […]); TRIM1, ([…], […]); TRIM5, ([…], […]); TRIM8, ([…], […]); TRIM16, ([…], […]); TRIM20, ([…], […]); TRIM21, ([…], […]); TRIM22, ([…], […]); TRIM28, ([…], […]); TRIM56, ([…], […]); and TRIM65, ([…], […]). […]

[1] = test system: primary human macrophages; assay: High content analysis of LC3 puncta in primary human macrophages; type: cell-based; conditions: IFN-γ 4 h
Experimental: (§2) (A and B) High content image analysis of LC3 puncta in (A) THP-1 cells or (B) human MDM cells treated with IFN-γ for 4 h. HC and mask overlays are as in FIG. 1. (C) Screen data from FIG. 1B showing average±range. (D) Knockdown efficacy of TRIMs were determined by RT-PCR. (E and F) THP-1 cells were treated with (E) escalating doses of IFN-γ for 4 h or (F) 1,000 U/ml of IFN-γ for indicated times, and TRIM20 mRNA levels were determined by quantitative RT-PCR. Values are standardized to (E) no IFN-γ control or (F) 0 h time point. (G) THP-1 cells were subjected to TRIM20 or scrambled siRNA, treated with IFN-γ for 4 h, and HC analysis performed. (H) Knockdown of TRIM20 mRNA levels was examined by quantitative RT-PCR. Values are standardized to control (Scr, scrambled; no IFN-γ). (I) LC3-II conversion in HEK293 cells transfected with GFP-TRIM20 (T20) or GFP. Data, means±SE, n≥3 experiments, except panel (C). Scale bars, 5 μm. *P<0.05, ^†P≥0.05 (t test in (B) or ANOVA (other panels)).
High content imaging and analysis was performed using a Cellomics V^TI HCS scanner and iDEV software (ThermoScientific). […] Epifluorescnece images were machine analyzed using present scanning parameters and object mask definitions. Hoechst 33342 staining were used to automatically detect cellular outlines based on background staining of the cytoplasm, and the mean count of LC3 puncta per cell was determined.

TRIM20 = TRIM20 mRNA levels by quantitative RT-PCR in THP-1 cells; type: cell-based, human; conditions: escalating doses for 4 h or 1,000 U/ml for indicated times
Experimental: as §2, with “Data, means±SE, n≥3 experiments, except panel (C). Scale bars, 5 μm. *P<0.05, ^†P≥0.05 (t test in (B) or ANOVA (other panels)).” left out
as §1

THP-1 cells = assay: High content analysis of LC3 puncta in THP-1 cells (TRIM family screen conditions); type: cell-based, human; conditions: IFN-γ 4 h
Experimental: (A) THP-1 cells were subjected to TRIM knockdown, treated with 1,000 U/mL IFN-γ for 4 h, and high content (HC) analysis was performed using a Cellomics HCS scanner (epifluorescence) and iDEV software. HC (magenta, endogenous LC3B immunofluorescence [IF]; blue, nuclei stained with Hoechst). Mask overlay, software-defined objects (primary objects, cell outlines; internal secondary objects, LC3 puncta). (B) Average count of LC3 puncta per cell from cells treated as in (A) (Data from two 96-well plates with identical siRNA arrangements; the corresponding data are shown in Supplementary FIG. 1C). Encircled are INF-γ-treated wells (right) and wells with vehicle controls (bottom left). TRIM knockdowns that reduced LC3 puncta readout in both two experiments by 3 SDs (horizontal dot lines) from the average of IFN-γ-treated controls (horizontal solid line) are indicated by corresponding TRIM numbers (open circle). TRIMs that were chosen in follow-up experiments in FIG. 1C are also indicated with number. (C) Similar to (B), except that THP-1 cells were subjected to specific TRIM or scrambled (Scr; control) knockdown, and were analyzed in more than quadruplicate manner. […] (E) THP-1 cells were treated with TRIM20 or Scr siRNAs, treated with or without IFN-γ for 4 h in the presence of bafilomycin A1, and LC3-II conversion was determined by immunoblots. […]

Molecule | activity as autophagy modulator (autophagy) | other results
CC(C)COCC(CN(Cc1ccccc1)c1ccccc1)N1CCCC1 (stereo not shown) [bepridil] | agonists or inducers of autophagy | 
CN(Cc1cc(Br)cc(Br)c1N)C1CCCCC1 [bromhexine] | agonists or inducers of autophagy | 
CCN(CC)CCOc1ccc(C(=C(Cl)c2ccccc2)c2ccccc2)cc1.O=C(O)CC(O)(CC(=O)O)C(=O)O [clomiphene citrate (Z,E)] | agonists or inducers of autophagy | 
CCCCc1cc2ccccc2c(OCCN(C)C)n1 [dimethisoquin] | agonists or inducers of autophagy | 
O=C(Nc1ccccc1)OCC(CN1CCCCC1)OC(=O)Nc1ccccc1 (stereo not shown) [diperodon] | agonists or inducers of autophagy | 
CNCC(O)c1ccc(OC(=O)C(C)(C)C)c(OC(=O)C(C)(C)C)c1 (stereo not shown) [dipivefrin] | agonists or inducers of autophagy | 
COC(=O)Nc1nc2cc(C(=O)c3ccc(F)cc3)ccc2[nH]1 [flubendazole] | agonists or inducers of autophagy | 
COCCCC/C(=N\OCCN)c1ccc(C(F)(F)F)cc1 [fluvoxamine] | agonists or inducers of autophagy | 
CC12CC3CC(C)(C1)CC(N)(C3)C2 [memantine] | agonists or inducers of autophagy | 
CN1CCCC(CC2c3ccccc3Sc3ccccc32)C1 (stereo not shown) [metixene] | agonists or inducers of autophagy | 
CNCCC=C1c2ccccc2C=Cc2ccccc21 [norcyclobenzaprine] | agonists or inducers of autophagy | 
CNCCC=C1c2ccccc2CCc2ccccc21 [nortriptyline] | agonists or inducers of autophagy | 
CC(=O)[O-].[Hg+][c]1ccccc1 [phenylmercuric acetate] | antagonists or inhibitors of autophagy | 
CC[N+](C)(CC)CCC[n+]1c(-c2ccccc2)c2cc(N)ccc2c2ccc(N)cc21.[I-].[I-] [propidium iodide] | agonists or inducers of autophagy | 
N#Cc1c(Cl)c(Cl)c(Cl)c(C#N)c1Cl [tetrachlorisophthalonitrile] | antagonists or inhibitors of autophagy | 
IFN-γ: interferon-gamma (PeproTech), precision autophagy modulator (protein, UniProt P01579 24-161, looked up) Interferon gamma: QDPYVKEAENLKKYFNAGHSDVADNGTLFLGILKNWKEESDRKIMQSQIVSFYFKLFKNFKDDQSIQKSVETIKEDMNVKFFNSNKKKRDDFEKLTNYSVTDLNVQRKAIHELIQVMAELSPAAKTGKRKRSQMLFRG |  | TRIM21 expression (TRIM21): transiently induced; autophagy induction (LC3 puncta per cell) [1]: induced autophagy; TRIM20 expression (TRIM20): responsive; autophagy induction (LC3 puncta per cell) (THP-1 cells): induced autophagy
